Where two headings read alike, the source gives them in different places.
Legend:
Assay type in all cases: in vivo
[1] = system: Kochia (Kochia scoparia); experiment: Test A preemergence; conditions: Bassia scoparia, pre-emergence, 240 h; for pest or weed control at 125 g/ha: 125 g ai/ha; for pest or weed control at 500 g/ha: 500 g ai/ha
Method in brief: (§1)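 Seeded soil received test chemicals as a preemergence directed spray, and seedlings at one to two leaves, 2–10 cm tall, received them postemergence, in a non-phytotoxic, surfactant-containing solvent mixture. Pots were held in a greenhouse for approximately 10 d, then rated for injury from 0, no effect, to 100, complete control.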

[2] = system: barnyardgrass (Echinochloa crus-galli); experiment: Test A preemergence; conditions: Echinochloa crus-galli, pre-emergence, 240 h; for pest or weed control at 125 g/ha: 125 g ai/ha; for pest or weed control at 500 g/ha: 500 g ai/ha
Method in brief: as §1

[3] = system: giant foxtail (Setaria faberii); experiment: Test A preemergence; conditions: Setaria faberi, pre-emergence, 240 h; for pest or weed control at 125 g/ha: 125 g ai/ha; for pest or weed control at 500 g/ha: 500 g ai/ha
Method in brief: as §1

[4] = system: pigweed (Amaranthus retroflexus); experiment: Test A preemergence; conditions: Amaranthus retroflexus, pre-emergence, 240 h; for pest or weed control at 125 g/ha: 125 g ai/ha; for pest or weed control at 500 g/ha: 500 g ai/ha
[5] = system: ragweed (common ragweed, Ambrosia elatior); experiment: Test A preemergence; conditions: Ambrosia artemisiifolia, pre-emergence, 240 h; for pest or weed control at 125 g/ha: 125 g ai/ha; for pest or weed control at 500 g/ha: 500 g ai/ha
Method in brief: as §1

[6] = system: ryegrass, Italian (Italian ryegrass, Lolium multiflorum); experiment: Test A preemergence; conditions: Lolium multiflorum, pre-emergence, 240 h; for pest or weed control at 125 g/ha: 125 g ai/ha; for pest or weed control at 500 g/ha: 500 g ai/ha
Method in brief: as §1

[7] = system: Kochia (Kochia scoparia); experiment: Test A postemergence; conditions: Bassia scoparia, post-emergence, 240 h; for pest or weed control at 125 g/ha: 125 g ai/ha, read-out: Kochia plant response rating (0 to 100 scale); for pest or weed control at 500 g/ha: 500 g ai/ha
Method in brief: as §1

[8] = system: blackgrass (Alopecurus myosuroides); experiment: Test A postemergence; conditions: Alopecurus myosuroides, post-emergence, 240 h; for pest or weed control at 125 g/ha: 125 g ai/ha, read-out: Blackgrass plant response rating (0 to 100 scale); for pest or weed control at 500 g/ha: 500 g ai/ha
Method in brief: as §1

[9] = system: giant foxtail (Setaria faberii); experiment: Test A postemergence; conditions: Setaria faberi, post-emergence, 240 h; for pest or weed control at 125 g/ha: 125 g ai/ha, read-out: Foxtail, Giant plant response rating (0 to 100 scale); for pest or weed control at 500 g/ha: 500 g ai/ha
Method in brief: as §1

[10] = system: ragweed (common ragweed, Ambrosia elatior); experiment: Test A postemergence; conditions: Ambrosia artemisiifolia, post-emergence, 240 h; for pest or weed control at 125 g/ha: 125 g ai/ha, read-out: Ragweed plant response rating (0 to 100 scale); for pest or weed control at 500 g/ha: 500 g ai/ha
Method in brief: as §1

[11] = system: barnyardgrass (Echinochloa crus-galli); experiment: Test B flooded paddy test; conditions: Echinochloa crus-galli, 250 g ai/ha, Flood; 0 to 100 scale where 0 is no effect and 100 is complete control; read-out: Barnyardgrass plant response rating
Method in brief: (§2)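 2-leaf plants; pots flooded 3 cm over soil; cpd added to paddy water; depth held; greenhouse 13–15 d; visual rating vs controls, 0 = no effect, 100 = complete control.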

[12] = system: ducksalad (Heteranthera limosa); experiment: Test B flooded paddy test; conditions: Heteranthera limosa, 250 g ai/ha, Flood; 0 to 100 scale where 0 is no effect and 100 is complete control; read-out: Ducksalad plant response rating
Method in brief: as §2

[13] = system: rice (Oryra sativa); experiment: Test B flooded paddy test; conditions: Oryza sativa, 250 g ai/ha, Flood; 0 to 100 scale where 0 is no effect and 100 is complete control; read-out: Rice plant response rating
Method in brief: as §2

[14] = system: sedge, umbrella (small-flower umbrella sedge, Cyperus difformis); experiment: Test B flooded paddy test; conditions: Cyperus difformis, 250 g ai/ha, Flood
Method in brief: as §2

[15] = preemergence, visual injury rating, 0 to 100 scale where 0 is no effect and 100 is complete control, approximately 10 d, read-out: Kochia plant response rating
[16] = preemergence, visual injury rating, 0 to 100 scale where 0 is no effect and 100 is complete control, approximately 10 d, read-out: Barnyardgrass plant response rating
[17] = preemergence, 0 to 100 scale where 0 is no effect and 100 is complete control, read-out: Barnyardgrass plant response rating
[18] = preemergence, visual injury rating, 0 to 100 scale where 0 is no effect and 100 is complete control, approximately 10 d, read-out: Foxtail, Giant plant response rating
[19] = preemergence, 0 to 100 scale where 0 is no effect and 100 is complete control, read-out: Foxtail, Giant plant response rating
[20] = preemergence, visual injury rating, 0 to 100 scale where 0 is no effect and 100 is complete control, approximately 10 d, read-out: Pigweed plant response rating
[21] = preemergence, 0 to 100 scale where 0 is no effect and 100 is complete control, read-out: Pigweed plant response rating
[22] = preemergence, visual injury rating, 0 to 100 scale where 0 is no effect and 100 is complete control, approximately 10 d, read-out: Ragweed plant response rating
[23] = preemergence, 0 to 100 scale where 0 is no effect and 100 is complete control, read-out: Ragweed plant response rating
[24] = preemergence, visual injury rating, 0 to 100 scale where 0 is no effect and 100 is complete control, approximately 10 d, read-out: Ryegrass, Italian plant response rating
[25] = preemergence, 0 to 100 scale where 0 is no effect and 100 is complete control, read-out: Ryegrass, Italian plant response rating
[26] = postemergence, visual injury vs untreated controls after approx. 10 d, 0 = no effect, 100 = complete control
[27] = postemergence, 0 to 100 scale, 0 is no effect, 100 is complete control, read-out: Kochia plant response rating
[28] = postemergence, 0 to 100 scale, 0 is no effect, 100 is complete control, read-out: Blackgrass plant response rating
[29] = postemergence, 0 to 100 scale, 0 is no effect, 100 is complete control, read-out: Foxtail, Giant plant response rating
[30] = postemergence, 0 to 100 scale, 0 is no effect, 100 is complete control, read-out: Ragweed plant response rating
[31] = 0 to 100 scale where 0 is no effect and 100 is complete control, read-out: Sedge, Umbrella plant response rating
[32] = preemergence, 0 to 100 scale where 0 is no effect and 100 is complete control, read-out: Kochia plant response rating
[33] = Postemergence, visual rating about 10 d after treatment

Structure (SMILES)	pest or weed control at 125 g/ha [1, 15] [%]	pest or weed control at 125 g/ha [2, 16] [%]	pest or weed control at 500 g/ha [2, 17] [%]	pest or weed control at 125 g/ha [3, 18] [%]	pest or weed control at 500 g/ha [3, 19] [%]	pest or weed control at 125 g/ha [4, 20] [%]	pest or weed control at 500 g/ha [4, 21] [%]	pest or weed control at 125 g/ha [5, 22] [%]	pest or weed control at 500 g/ha [5, 23] [%]	pest or weed control at 125 g/ha [6, 24] [%]	pest or weed control at 500 g/ha [6, 25] [%]	pest or weed control at 125 g/ha [7, 26] [%]	pest or weed control at 500 g/ha [7, 27] [%]	pest or weed control at 125 g/ha [8, 26] [%]	pest or weed control at 500 g/ha [8, 28] [%]	pest or weed control at 125 g/ha [9, 26] [%]	pest or weed control at 500 g/ha [9, 29] [%]	pest or weed control at 250 g/ha [11] [%]	pest or weed control at 250 g/ha [12] [%]	pest or weed control at 250 g/ha [13] [%]	also measured
COc1ccc([C@H]2CN(C)C(=O)[C@@H]2C(=O)Nc2ccccc2SC)c(OC)c1 [Compound 1216]	0	0	90	30	80	0	0	0	20	0	0	0	40	0	0	20	80	0	0	0	pest or weed control at 125 g/ha [10, 26]: 0%; pest or weed control at 500 g/ha [10, 30]: 0%; pest or weed control at 250 g/ha [14, 31]: 0%
COc1cc([C@H]2CN(C)C(=O)[C@@H]2C(=O)Nc2ccccc2SC)cc(OC)c1OC [Compound 1218]	0	30	100	80	90	0	0	0	0	0	0	0	20	0	0	0	50	0	40	0	pest or weed control at 500 g/ha [1, 32]: 0%; pest or weed control at 125 g/ha [10, 26]: 0%; pest or weed control at 500 g/ha [10, 30]: 0%; pest or weed control at 250 g/ha [14, 31]: 0%
CSc1ccccc1NC(=O)[C@H]1C(=O)N(C)C[C@@H]1c1ccc(F)c(C)c1 [Compound 1312]	–	–	100	–	100	–	60	–	100	–	–	–	–	–	–	–	–	40	100	0	pest or weed control at 500 g/ha [1, 32]: 80%; pest or weed control at 125 g/ha ([1]; Preemergence, 0 to 100 scale (0 no effect, 100 complete control), read-out: Plant response rating, Kochia): 50%; pest or weed control at 125 g/ha ([2]; Preemergence, 0 to 100 scale (0 no effect, 100 complete control), read-out: Plant response rating, Barnyardgrass): 90%; pest or weed control at 125 g/ha ([3]; Preemergence, 0 to 100 scale (0 no effect, 100 complete control), read-out: Plant response rating, Foxtail, Giant): 90%; pest or weed control at 125 g/ha ([4]; Preemergence, 0 to 100 scale (0 no effect, 100 complete control), read-out: Plant response rating, Pigweed): 20%; pest or weed control at 125 g/ha ([5]; Preemergence, 0 to 100 scale (0 no effect, 100 complete control), read-out: Plant response rating, Ragweed): 70%; pest or weed control at 125 g/ha ([6]; Preemergence, 0 to 100 scale (0 no effect, 100 complete control), read-out: Plant response rating, Ryegrass, Italian): 60%; pest or weed control at 125 g/ha [7, 33]: 50%; pest or weed control at 500 g/ha ([7]; Postemergence, visual injury, 0 to 100 scale (0 no effect, 100 complete control), approx. 10 d, read-out: Plant response rating, Kochia): 70%; pest or weed control at 125 g/ha [8, 33]: 50%; pest or weed control at 500 g/ha ([8]; Postemergence, visual injury, 0 to 100 scale (0 no effect, 100 complete control), approx. 10 d, read-out: Plant response rating, Blackgrass): 70%; pest or weed control at 125 g/ha [9, 33]: 90%; pest or weed control at 500 g/ha ([9]; Postemergence, visual injury, 0 to 100 scale (0 no effect, 100 complete control), approx. 10 d, read-out: Plant response rating, Foxtail, Giant): 90%; pest or weed control at 125 g/ha [10, 33]: 0%; pest or weed control at 500 g/ha ([10]; Postemergence, visual injury, 0 to 100 scale (0 no effect, 100 complete control), approx. 10 d, read-out: Plant response rating, Ragweed): 70%; pest or weed control at 250 g/ha ([14]; 360 h, visually evaluated after 13 to 15 d, read-out: Plant response rating, Sedge, Umbrella (0 to 100 scale where 0 is no effect and 100 is complete control)): 0%
